Experimental data published in US12364702B2, “Highly active sting protein agonist compound” (ADLAI NORTYE BIOPHARMA CO., LTD., priority 2018, dated 2025).
pEC50: −log10 of the molar value. Like-named read-outs stand apart in the source and are kept apart here.

Key:
Format in all cases: cell-based
STING HAQ variant [1] = molecular target: T1, STING HAQ variant (Homo sapiens, UniProt Q86WV6, G230A/R293Q/R71H); assay: SEAP reporter assay in HEK-Blue ISG KO-STING cells transfected with STING HAQ variant (Method 2); design: key: ratio of compound SEAP signal to 0.5% DMSO; conditions: 0.0625 ng STING vector (HAQ variant), compound 5 uM, 24 h, SEAP signal vs 0.5% DMSO
T1 construct: host or cells: HEK-Blue ISG KO-STING cells (Invivogen, hkb-kostg)
T1 sequence (Q86WV6 whole entry R71H/G230A/R293Q): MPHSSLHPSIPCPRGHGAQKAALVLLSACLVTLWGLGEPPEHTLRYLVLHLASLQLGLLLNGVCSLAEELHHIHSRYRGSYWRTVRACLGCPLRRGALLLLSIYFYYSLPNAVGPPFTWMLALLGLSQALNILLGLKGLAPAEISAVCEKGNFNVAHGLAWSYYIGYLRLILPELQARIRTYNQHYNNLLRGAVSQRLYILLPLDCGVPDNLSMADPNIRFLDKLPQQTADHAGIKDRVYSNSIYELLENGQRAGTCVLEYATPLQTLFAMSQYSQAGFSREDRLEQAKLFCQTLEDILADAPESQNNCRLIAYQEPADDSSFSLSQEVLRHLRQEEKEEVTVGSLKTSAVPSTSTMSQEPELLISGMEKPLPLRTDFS
Excerpt: (§1) Activation of STING can be determined using a SEAP reporter assay in HEK-Blue™ ISG KO-STING cells (Invivogen, cat #hkb-kostg) transfected with plasmids expressing STING variants (WT & HAQ) (referred to WO2017/175147A1). STING variants (WT & HAQ) vector were constructed based on STING-232H vector (Origene, RC208418). GFP vector (VT2069) was bought from Youbio. The detailed protocol as follows: HEK-Blue™ ISG KO-STING cells were harvest and seeding into 96 well plate and the final cell number was 0.8×10^5 cells/well. Transfections were prepared using Lipofectamine 2000 (Invitrogen, Cat #11668-027) following the manufacturer's instructions (Lipo2000/DNA=1/10), 20 ul of transfection suspension containing 1 ng (WT variant) or 0.0625 ng (HAQ variant) STING vector was added to cell culture plate and incubated at 37° C., 5% CO2 for 24 hours. After 24 hours incubation, compounds were added at proper concentration, the final DMSO concentration was 0.5%. After 24 h incubation, the supernatant was collected to detect SEAP signal using Great EscAPe SEAP chemiluminescence KIT (Clontech, cat #631738) and cells were collected to detect cell viability using CellTiter-Glo Luminescent Cell Viability Assay (Promega, cat #G7573) following the manufacturer's instructions. The data were described by the ratio of the stimulating signal of compounds to 0.5% DMSO.

STING WT variant [2] = molecular target: T2, STING WT variant (Homo sapiens, UniProt Q86WV6); assay: SEAP reporter assay in HEK-Blue ISG KO-STING cells transfected with STING WT variant (Method 1); conditions: compound 7.8 uM, 24 h, SEAP signal vs 0.5% DMSO
T2 construct: host or cells: HEK-Blue ISG KO-STING cells (Invivogen, hkb-kostg)
Procedure, shortened: (§2)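 HEK-Blue ISG KO-STING cells transfected with 1 ng STING variant plasmid for 24 h at 37 °C, then compound-treated 24 h (0.5% DMSO final). SEAP chemiluminescence read in supernatant; viability by CellTiter-Glo. Values are compound signal relative to 0.5% DMSO.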

STING HAQ variant [3] = molecular target: T1, STING HAQ variant; assay: SEAP reporter assay in HEK-Blue ISG KO-STING cells transfected with STING HAQ variant (Method 1); conditions: compound 7.8 uM, 24 h, SEAP signal vs 0.5% DMSO
Procedure, shortened: as §2

STING = STING (Homo sapiens, UniProt Q86WV6); assay: IFN-β secretion from THP1 by STING activation (hIFNβ ELISA)
STING, sequence (Q86WV6 whole entry): as the sequence (Q86WV6 whole entry R71H/G230A/R293Q) above, with H71R, A230G, Q293R counted along it
Procedure, shortened: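 THP1 cells (2×10^6 cells/ml) exposed 24 h at 37° C, 5% CO2 to 8-point, 3-fold compound dilutions, 0.2% DMSO final, top dose set by solubility. Secreted IFN-β in supernatant measured by human IFNβ ELISA; EC50 from curve fitting.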

STING WT variant [4] = molecular target: T2, STING WT variant; assay: SEAP reporter assay in HEK-Blue ISG KO-STING cells transfected with STING WT variant (Method 2); design: key: ratio of compound SEAP signal to 0.5% DMSO; conditions: 1 ng STING vector (WT variant), compound 2.5 uM, 24 h, SEAP signal vs 0.5% DMSO
Excerpt: as §1

[5] = THP1 cells; 24 h incubation; IFN-β in supernatant; top dose set according to solubility; read-out: hIFNβ ELISA (EC50)

| SMILES | Fold change related to DMSO control HAQ (STING HAQ variant [1]) | Fold change related to DMSO control WT (STING WT variant [2]) | Fold change related to DMSO control HAQ (STING HAQ variant [3]) | pEC50 (STING; [5]) | Fold change related to DMSO control WT (STING WT variant [4]) | pEC50 (STING; read-out: hIFNβ ELISA (EC50); THP1 cells; 24 h incubation; IFN-β in supernatant; top dose set according to solubility) |
| --- | --- | --- | --- | --- | --- | --- |
| CCn1nc(C)cc1C(=O)Nc1nc2cc(C(N)=O)cc(OCCCOC)c2n1CCC[C@H]1COc2cc(C(N)=O)cc3nc(NC(=O)c4cc(C)nn4CC)n1c23 [Example 1, (S)-3-(3-(5-Carbamoyl-2-(1-ethyl-3-methyl-1H-pyrazole-5-carboxamido)-7-(3-methoxypropoxy)-1H-benzo[d]imidazol-1-yl)propyl)-2-(1-ethyl-3-methyl-1H-pyrazole-5-carboxamido)-3,4-dihydro-5-oxa-1,2a-diazaacenaphthylene-7-carboxamide] | 24.13 | 2.29 | 36.93 | 5.68 | 13.65 |  |
| CCn1nc(C)cc1C(=O)Nc1nc2cc(C(N)=O)cc(OCCCN)c2n1CCC[C@H]1COc2cc(C(N)=O)cc3nc(NC(=O)c4c(F)c(C)nn4CC)n1c23.Cl [Example 51, (S)-3-(3-(7-(3-aminopropoxy)-5-carbamoyl-2-(1-ethyl-3-methyl-1H-pyrazole-5-carboxamido)-1H-benzo[d]imidazol-1-yl)propyl)-2-(1-ethyl-4-fluoro-3-methyl-1H-pyrazole-5-carboxamido)-3,4-dihydro-5-oxa-1,2a-diazaacenaphthylene-7-carboxamide hydrochloride] | 11.97 |  |  |  | 9.66 | < 4.30 |
| CCn1nc(C)cc1C(=O)Nc1nc2cc(C(N)=O)cc(OCCCNC(=O)CN(C)C)c2n1CCC[C@H]1COc2cc(C(N)=O)cc3nc(NC(=O)c4c(F)c(C)nn4CC)n1c23 [Example 52, (S)-3-(3-(5-carbamoyl-7-(3-(2-(dimethylamino)acetamido)propoxy)-2-(1-ethyl-3-methyl-1H-pyrazole-5-carboxamido)-1H-benzo[d]imidazol-1-yl)propyl)-2-(1-ethyl-4-fluoro-3-methyl-1H-pyrazole-5-carboxamido)-3,4-dihydro-5-oxa-1,2a-diazaacenaphthylene-7-carboxamide] | 18.32 |  |  | < 4.30 | 11.79 |  |
| CCn1nc(C)cc1C(=O)Nc1nc2cc(C(N)=O)cc(OCCCNC(=O)CN3CCOCC3)c2n1CCC[C@H]1COc2cc(C(N)=O)cc3nc(NC(=O)c4c(F)c(C)nn4CC)n1c23 [Example 53, (S)-3-(3-(5-carbamoyl-2-(1-ethyl-3-methyl-1H-pyrazole-5-carboxamido)-7-(3-(2-morpholinoacetamido)propoxy)-1H-benzo[d]imidazol-1-yl)propyl)-2-(1-ethyl-4-fluoro-3-methyl-1H-pyrazole-5-carboxamido)-3,4-dihydro-5-oxa-1,2a-diazaacenaphthylene-7-carboxamide] | 17.39 |  |  | 5.92 | 10.85 |  |
| CCn1nc(C)cc1C(=O)Nc1nc2cc(C(N)=O)cc(OCCCNC(=O)CN(C)C)c2n1CCC[C@H]1COc2cc(C(N)=O)cc3nc(NC(=O)c4c(Cl)c(C)nn4CC)n1c23 [Example 54, (S)-3-(3-(5-carbamoyl-7-(3-(2-(dimethylamino)acetamido)propoxy)-2-(1-ethyl-3-methyl-1H-pyrazole-5-carboxamido)-1H-benzo[d]imidazol-1-yl)propyl)-2-(4-chloro-1-ethyl-3-methyl-1H-pyrazole-5-carboxamido)-3,4-dihydro-5-oxa-1,2a-diazaacenaphthylene-7-carboxamide] | 19.74 |  |  | 5.28 | 13.02 |  |
| CCn1nc(C)cc1C(=O)Nc1nc2cc(C(N)=O)cc(OCCCNC(=O)CN3CCOCC3)c2n1CCC[C@H]1COc2cc(C(N)=O)cc3nc(NC(=O)c4c(Cl)c(C)nn4CC)n1c23 [Example 55, (S)-3-(3-(5-carbamoyl-2-(1-ethyl-3-methyl-1H-pyrazole-5-carboxamido)-7-(3-(2-morpholinoacetamido)propoxy)-1H-benzo[d]imidazol-1-yl)propyl)-2-(4-chloro-1-ethyl-3-methyl-1H-pyrazole-5-carboxamido)-3,4-dihydro-5-oxa-1,2a-diazaacenaphthylene-7-carboxamide] | 26.34 |  |  | 5.92 | 11.71 |  |
| CCn1nc(C)cc1C(=O)Nc1nc2cc(C(N)=O)cc(OCCCN=C(N(C)C)N(C)C)c2n1CCC[C@H]1COc2cc(C(N)=O)cc3nc(NC(=O)c4cc(C)nn4CC)n1c23 [Example 56, (S)-3-(3-(7-(3-((bis(dimethylamino)methylene)amino)propoxy)-5-carbamoyl-2-(1-ethyl-3-methyl-1H-pyrazole-5-carboxamido)-1H-benzo[d]imidazol-1-yl)propyl)-2-(1-ethyl-3-methyl-1H-pyrazole-5-carboxamido)-3,4-dihydro-5-oxa-1,2a-diazaacenaphthylene-7-carboxamide] | 10.61 |  |  | 4.76 | 6.76 |  |
| CCn1nc(C)cc1C(=O)Nc1nc2cc(C(N)=O)cc(OCCCO)c2n1CCC[C@H]1CN(C)c2cc(C(N)=O)cc3nc(NC(=O)c4cc(C)nn4CC)n1c23 [Example 57, (S)-4-(3-(5-carbamoyl-2-(1-ethyl-3-methyl-1H-pyrazole-5-carboxamido)-7-(3-hydroxypropoxy)-1H-benzo[d]imidazol-1-yl)propyl)-2-(1-ethyl-3-methyl-1H-pyrazole-5-carboxamido)-6-methyl-5,6-dihydro-4H-imidazo[1,5,4-de]quinoxaline-8-carboxamide] | 23.35 |  |  | 5.59 | 11.24 |  |
